Tested on: S. aureus ATCC 6538
Assay: agar diffusion test according to Burkhardt
Assay type: cell-based
Conditions: 18+2 hours at 36° C.
Description: The agar diffusion test according to Burkhardt (Burkhardt, F. (Hrsg.) Mikrobiologische Diagnostik. Georg-Thieme Verlag Stuttgart, New York 1992, p. 724) was carried out. Mueller-Hinton II-Agar in Stacker Petri dishes (Becton Dickinson Microbiology Systems, Cockeysville, USA) were employed in the test for 15. The strain S. aureus ATCC 6538 was selected as test strain. The initial seed of this test strain was chosen such that after […] of incubation, closely standing, but not confluent, single colonies had developed. After drying of the seeded culture media, the treated collagen non-woven material was applied to the agar surface. After 18+2 hours incubation at 36° C., the inhibition sphere was measured.

Gentamycine
Inhibition sphere against S. aureus ATCC 6538 (Treatment 20%): 24
Inhibition sphere against S. aureus ATCC 6538 (Treatment 40%): 38

— patent US8440209B2, “Adhesive for medical applications and means for haemostasis” (Stryker Trauma GmbH, priority 2006, dated 2013)
